# Laboratory results published in article PMC11969024, “Development of chemokine network inhibitors using combinatorial saturation mutagenesis” (Communications Biology, 2025).
# Key:
# J:CXCR1 cells = assay: Chemokine dose-response, J:CXCR1 cell migration; assay type: cell-based, human; conditions: mean of 7 replicates
# Protocol: (§1) Cell lines were confirmed mycoplasma free by monthly testing using a MycoAlert^TM kit (LT07-118, Lonza) following the manufacturer’s instructions. THP1 cells: THP1 cells (ECACC 88081201, a human monocyte leukemia cell line[51]) were obtained from ECACC and were cultured in T175 flasks at 0.3-1 × 10^6 cells/mL in Roswell Park Memorial Institute (RPMI) 1640 medium (R0883, Sigma) with 10% FBS (F9665, Sigma) and 5mM L-glutamine (G7513, Sigma), 37 °C, 5% CO2. J:CXCR1 cells: The J:CXCR1 cell line was cultured in the same manner as THP1 cells at 0.15-1 × 10^6 cells per mL[37]. Activated T-cells: T-cells were isolated, activated and expanded as follows. […] The final pellet was resuspended in 1 mL of MACS buffer per 5 mL of initial blood volume and counted using cell size FSC-H/SSC-H parameters with gate settings previously defined by immunostaining (see below). […]
# (§2) Cell counts were determined using an ATTUNE NxT Flow Cytometer with Cytkick autosampler (ThermoFisher), based on cell size parameters FSC-H/SSC-H, with previously defined gate settings. FSC-H/SSC-H gate settings for primary white blood cells from buffy coats were determined using flow cytometry to establish the granulocyte, monocyte and lymphocyte populations (Supplementary Fig. 13). […]
# [1] = test system: activated CD8+T-cells (ATC); assay: Activated T-cell (ATC) migration induced by individual chemokines, inhibition by peptide; assay type: cell-based, human; conditions: peptide 10 uM; chemokines at EC80; Dunnett's test
# Protocol: Cell lines were confirmed mycoplasma free by monthly testing using a MycoAlert^TM kit (LT07-118, Lonza) following the manufacturer’s instructions. THP1 cells: THP1 cells (ECACC 88081201, a human monocyte leukemia cell line[51]) were obtained from ECACC and were cultured in T175 flasks at 0.3-1 × 10^6 cells/mL in Roswell Park Memorial Institute (RPMI) 1640 medium (R0883, Sigma) with 10% FBS (F9665, Sigma) and 5mM L-glutamine (G7513, Sigma), 37 °C, 5% CO2. J:CXCR1 cells: The J:CXCR1 cell line was cultured in the same manner as THP1 cells at 0.15-1 × 10^6 cells per mL[37]. Activated T-cells: T-cells were isolated, activated and expanded as follows. Briefly, density gradient centrifugation using Lymphoprep^TM density gradient medium (07801, […] Technologies) and a SepMate^TM isolation tube (85450, […] Technologies) was used to isolate peripheral blood mononuclear cells from human leukocyte cones. Two rounds of purification using a human CD8 + T-cell isolation kit (480011, BioLegend) were used to isolate CD8 + T-cells from peripheral blood mononuclear cells. Activation of CD8 + T-cells was performed in ImmunoCult^TM-XF T-cell expansion medium (10982, […] Technologies) with an anti-CD3/anti-CD28 T-cell activator at 25 μl/ml (10991, […] Technologies), supplemented with 10 ng/ml recombinant human IL-2 (200-02, PeproTech) with 1% penicillin/streptomycin. T-cells were passaged every 2–3 days in TexMACS medium (130-097-196, Miltenyi Biotec), supplemented with 10 ng/ml human IL-2 (200-05-250, Peprotech) and incubated at 37 °C in 5% CO2. CD8 + T-cells were frozen at day 10-13 after initial activation, at 20×10^6 cell/ml in TexMACS medium supplemented with 10% DMSO (D2650, Sigma) in liquid nitrogen. Activated CD8^+ T-cells were recovered in TexMACs medium at 0.3 × 10^6 cell/ml and incubated at 37 °C in 5% CO2, 24 h prior to use. For buffy coat experiments a mixture of primary human monocytes, granulocytes and lymphocytes was isolated from human buffy coat. Briefly, RBCs were sedimented in HetaSep (07806, […] Technologies) with 1 mL of HetaSep per 5 mL of blood for 15 min at 37 °C. The buffy coat layer was collected from the top and washed in 50 ml MACS buffer (PBS (P4417, Sigma), 0.5% BSA (A7030, Sigma), 0.075% EDTA (E5134, Sigma), pH 7.2), by centrifugation at 2000 g for 10 min at room temperature. The pellet was resuspended in 10 mL of 1x RBC lysis solution (130-094-183, Miltenyi Biotec) and lysed for 10 min at room temperature. The cells were then washed in MACS buffer twice as above. The final pellet was resuspended in 1 mL of MACS buffer per 5 mL of initial blood volume and counted using cell size FSC-H/SSC-H parameters with gate settings previously defined by immunostaining (see below). The leukocytes were then resuspended in assay buffer for cell migration and used within 30 min of isolation.
# Cell counts were determined using an ATTUNE NxT Flow Cytometer with Cytkick autosampler (ThermoFisher), based on cell size parameters FSC-H/SSC-H, with previously defined gate settings. FSC-H/SSC-H gate settings for primary white blood cells from buffy coats were determined using flow cytometry to establish the granulocyte, monocyte and lymphocyte populations (Supplementary Fig. 13). Briefly, cells were labelled with anti-CD3 (Miltenyi Biotec, 130-113-135) to identify the T cell population, anti-CD14 (Miltenyi Biotec, 130-110-578) to identify the monocyte population, and with anti-CD16 (Miltenyi Biotec, 130-113-951) to identify the granulocyte population. Negative control cells were labelled with anti-human IgG1 (Miltenyi Biotec, 130-113-434). All antibodies were allophycocyanin (APC) conjugated. 100,000 white blood cells were added to Eppendorf tubes and centrifuged at 300 g for 3 min. The supernatant was discarded, and the cells resuspended in 98 µL of MACS buffer (1× PBS, 2 mM EDTA and 0.5% BSA, sterile filtered). 2 µl of antibody was added to the cells. […]
# [2] = test system: J:CXCR1 cells (Jurkat cells stably transfected with CXCR1); assay: J:CXCR1 cell migration induced by CXCL6, inhibition by peptide; assay type: cell-based, human; conditions: peptide 10 uM; CXCL6 at EC80; Dunnett's test
# Protocol: as §1, with “follows. Briefly, density gradient centrifugation using Lymphoprep^TM density gradient medium (07801, […] Technologies) and a SepMate^TM isolation tube (85450, […] Technologies) was used to isolate peripheral blood mononuclear cells from human leukocyte cones. Two rounds of purification using a human CD8 + T-cell isolation kit (480011, BioLegend) were used to isolate CD8 + T-cells from peripheral blood mononuclear cells. Activation of CD8 + T-cells was performed in ImmunoCult^TM-XF T-cell expansion medium (10982, […] Technologies) with an anti-CD3/anti-CD28 T-cell activator at 25 μl/ml (10991, […] Technologies), supplemented with 10 ng/ml recombinant human IL-2 (200-02, PeproTech) with 1% penicillin/streptomycin.” for “follows.”
# as §2
# [3] = test system: THP1 cells, activated T-cells (ATC), J:CXCR1 cells; assay: Meta-analysis of individual chemokine-induced cell migration experiments; assay type: cell-based, human; conditions: seven CC and three CXC chemokines, Dunnett's test
# Protocol: Cell migration assays were performed as follows. THP1 cell migration. Briefly, 300000 cells/well were added to the top chamber of a 5-µm 96-well Transwell insert (3387, Corning) in 50 µL of cell migration media (RPMI-1640 (R0883, Sigma), 0.5% FBS (F9665, Sigma), 4mM L-Glutamine (G7513, Sigma), 0.05% DMSO (D4540, Sigma)). The bottom chamber contained 150 µL of migration media with chemokine and peptide. Cells were migrated at 37 °C in 5% CO2 for 4 h. J:CXCR1 cell migration was performed exactly as above using a 3-µm Transwell insert (3385, Corning). Activated T-cell migration. Briefly, 100000 cells/well were added to the top chamber of a 3-µm Transwell insert (3385, Corning) in 50 µL of migration media (HBSS (14025-092, Life Technologies), 0.1% protease free bovine serum albumin (A7030, Sigma), 0.05% DMSO (D4540, Sigma)). The bottom chamber contained 150 µL of migration media with chemokine and peptide. Cells were migrated at 37 °C in 5% CO2 for 2 h. Buffy coat migration. Briefly, a mixture of all cell types at 100000 cells/well were added to the top chamber of a 3-µm Transwell insert (3385, Corning) in 50 µL of migration media (HBSS (14025-092, Life Technologies), 0.1% protease free bovine serum albumin (A7030, Sigma), 0.05% DMSO (D4540, Sigma). The bottom chamber contained 150 µL of migration media with chemokine and peptide. Cells were migrated at 37 °C in 5% CO2 for 2 h. Analysis of cell migration. The migration plate was shaken at 850 RPM for 10 min, and media from bottom plate transferred to a round-bottomed 96 well plate (353910, Falcon). Cells were counted by flow cytometry as described above. Experiments were performed at chemokine EC80 for individual chemotaxis experiments and at EC50 for the pooled chemokine experiments, with three technical replicates, and at least three biological replicates. Statistical significance of differences between control and test groups was evaluated using a two-sided Dunnett’s test with multiple testing correction. Chemokine EC80 or chemokine pool EC50 values were as determined by performing a chemokine dose-response against the cell type and fitting the dose-response curve with a 3-parameter log-logistic model, where the maximal response is fixed at 100% response. […] IC50 was determined by performing inhibitor dose-response experiments and fitting the dose-response curve with a 3-parameter log-logistic model, fixing the bottom of the curve to zero. […] For summary statistics and comparisons, pEC50, pEC80 and pIC50 were calculated as the negative log10 of EC50, EC80 or IC50 expressed in moles/litre.
# Sample size and estimated effect sizes were not formally calculated for cell-based or phage-display experiments and no randomization was performed. […]
# Lymphocytes = assay: Buffy coat lymphocyte migration induced by disease chemokine pools, inhibition by peptide; assay type: cell-based, human; conditions: peptide 10 uM; pool at EC50; compared to HD2SCR
# From the text: (§3) To assess the potential of combinatorially mutated peptides as therapeutic agents in inflammatory disease, we explored their efficacy against pools of chemokines known to be produced in diseased tissues. We developed the chemokine pool approach to represent the naturally occurring mix of chemokines present in diseased tissues as chemokines have well-known synergistic interactions that cannot be recapitulated when studied individually[8],[11],[55]–[60]. We chose three diseases, atherosclerotic plaque, rheumatoid arthritis, and type 1 diabetes as exemplars, as there is considerable evidence supporting the role of chemokines in their pathology[2]–[4]. To develop disease-relevant chemokine pools, we identified well-characterised bulk RNA-sequencing datasets from atherosclerotic plaque (GSE198600) and rheumatoid arthritis synovium (GSE198520)[61],[62]. […] We analysed chemokine expression levels (in transcripts per million) from these datasets (Supplementary Fig. 6). For each disease we designed a synthetic chemokine pool such that individual chemokine molar concentrations were at ratios determined by the mean relative expression of chemokines in the RNA-sequencing dataset. […] In these experiments we also assessed the effect of EVA4, the parental CC-chemokine binding evasin from which the HD2 series was derived.
# [4] = lyophilised peptide, data provided by the manufacturer, ref GenScript, cited from earlier work
# THP1 cells = assay: THP1 cell migration (Transwell) induced by individual chemokines, inhibition by peptide; assay type: cell-based, human
# Protocol: as §1, §2
# Monocytes = assay: Buffy coat monocyte migration induced by disease chemokine pools, inhibition by peptide; assay type: cell-based, human; conditions: peptide 10 uM; pool at EC50; compared to HD2SCR
# From the text: as §3
substance,measurement,setting,value
"CXCL6: human chemokine, Peprotech 300-41",Mean pEC50,J:CXCR1 cells,7.71 [M]
same,Mean pEC80,J:CXCR1 cells,7.45 [M]
"EEDDYTAYAPLTCYFC [HD2T16C, HD2 point mutant]","inhibition of CCL19, CCL21, CXCL9, and CXCL11-induced migration of ATCs compared to parental HD2",[1],significant improvement in inhibition
same,inhibition of CXCL6-induced migration of J:CXCR1 cells compared to parental HD2,[2],significant improvement in inhibition
same,"migrated cell count over all chemokines studied, compared to HD2 (meta-analysis)",[3],significant improvement over HD2
"DDDDWDAYAPIWCYFT [HD2CM452, combinatorially mutated HD2 peptide, CM-maxCC group]","inhibition of lymphocyte migration, atherosclerosis pool",Lymphocytes,significant inhibition
same,"inhibition of lymphocyte migration, rheumatoid arthritis pool",Lymphocytes,significant inhibition
EEDDYTAYWPLTCYFT [HD2A9W],"inhibition of CCL19, CCL21, CXCL9, and CXCL11-induced migration of ATCs compared to parental HD2",[1],significant improvement in inhibition
same,inhibition of CXCL6-induced migration of J:CXCR1 cells compared to parental HD2,[2],significant improvement in inhibition
same,"migrated cell count over all chemokines studied, compared to HD2 (meta-analysis)",[3],significant improvement over HD2
same,"Solubility, Water",[4]; C-terminal amide,Insoluble
same,"Solubility, DMSO",[4],Insoluble
same,"Solubility, HCOOH",[4],Soluble
same,"Solubility, PBS",[4],Insoluble
"DWDDWTAYWDLVCYFD [HD2CM3085, combinatorially mutated HD2 peptide, CM-min group]",inhibition of CCL8 migration compared to the parental peptide,"THP1 cells; peptide 0.1 uM, CCL8 at EC80",significantly worse
same,inhibition of CCL7 migration compared to the parental peptide,"THP1 cells; peptide 5 uM, CCL7 at EC80",no differently
"DDDDWDDYAPITCYFD [HD2CM539, combinatorially mutated HD2 peptide, CM-max group]","inhibition of monocyte migration, insulitis pool",Monocytes,significant inhibition
